The values below come from publication PMC12040169 (PLOS Biology, 2025).

The first series can be described thus: in vitro. Particulars: human, hela cells, % viability.
Usually viability stands for a read-out of living cells in per cent, often relative to untreated cells. As for `CC(=O)c1cnc2nc(-c3cccnc3)nn2c1C` [CBK287859], the viability at 28.5 h, 10 µM stood at 112%.

Turning to `CCNc1nc(Sc2ccc(Cl)cc2)cc(C(F)(F)F)n1` [CBK003349], the viability at 28.5 h, 10 µM was determined as 79.4%.

On to `COc1ccc(-c2cc(C(=O)NCc3ccc(F)cc3)cnc2-c2cccc(C)c2)cc1` [CBK036702], for which the viability at 28.5 h, 10 µM was 98.8%.

As for `Cc1ncc(COP(=O)(O)O)c(/C=N/c2ccc3ccccc3c2)c1O` [CBK261460], the viability at 28.5 h, 10 µM turned out to be 106%.

On to `Cc1cc(/C=C\c2nc(O)c([N+](=O)[O-])c(=O)[nH]2)c(C)n1-c1ccc(C(=O)O)cc1` [CBK267334], for which the viability at 28.5 h, 10 µM was 96.4%.

With `CCCCN(C(=O)C(F)(F)c1ccccc1)c1c(N)n(CCC)c(=O)[nH]c1=O` [CBK297769], the viability at 28.5 h, 10 µM came to 91.4%.

For `NC(=O)CN1CCC2(CC1)CN(CC(N)=O)c1ccccc12` [CBK126789], the viability at 28.5 h, 10 µM amounted to 100%.

Take `O=C(NC1Cc2ccccc2C1)c1cscn1` [CBK200363]: the viability at 28.5 h, 10 µM turned out to be 93.5%.

On to `CC1=C[C@@H](CNS(=O)(=O)c2ccccc2)[C@H](C(C)C)C[C@H]1CC(=O)N1CCCC1` [CBK289054], for which the viability at 28.5 h, 10 µM stood at 122%.

With `CSCCC(=O)N1CCCC2(CCN(C(=O)c3cc(F)c(F)cc3F)C2)C1` (stereo not shown) [CBK131557], the viability at 28.5 h, 10 µM was determined as 93.7%.

Consider `Cc1[nH]c(=O)[nH]c(=O)c1Cc1cccc2ccccc12` [CBK111494], for which the viability at 28.5 h, 10 µM amounted to 92.8%.

With `CC(C)[C@@H](CO)Nc1nc(-c2ccc3ccccc3c2)cn2ccnc12` [CBK037445], the viability at 28.5 h, 10 µM is 85.8%.

For the compound `CCN(Cc1ccncc1)C(=O)NCCOc1ccccc1` [CBK155148], the viability at 28.5 h, 10 µM is 100%.

Consider `COc1ccc(CC(=O)Nc2ccc(OCC(=O)O)cc2)cc1` [CBK264244], for which the viability at 28.5 h, 10 µM is 103%.

As to `O=[N+]([O-])c1ccc(CN2CCN(Cc3c[nH]c4ccccc34)CC2)cc1` [CBK218620], the viability at 28.5 h, 10 µM is 92.3%.

On to `CC(=O)c1ccc(-c2ccc3ccc(N)nc3n2)cc1` [CBK061862], for which the viability at 28.5 h, 10 µM was determined as 84.4%.

With `O=S(=O)(c1ccc(Cl)cc1)N1CCN(S(=O)(=O)N2CCOCC2)CC1` [CBK266878], the viability at 28.5 h, 10 µM was 92.9%.

Take `O=C1CN(C(=O)Nc2ccccc2Cl)CCN1` [CBK155862]: the viability at 28.5 h, 10 µM was found to be 96.7%.

`COc1cccc(CC(=O)N2CCCC2c2nc3ccccc3[nH]2)c1` (stereo not shown) [CBK283665]: the viability at 28.5 h, 10 µM was determined as 99.8%.

On to `O=C(NCc1nnc(-c2cccs2)o1)c1cccc(Cl)c1` [CBK284633], for which the viability at 28.5 h, 10 µM amounted to 95.6%.

Take `CCOC(=O)c1ccc(NC(=S)NCCN(CC)CC)cc1` [CBK018358]: the viability at 28.5 h, 10 µM was 104%.

`O=C(c1ccc(-c2cnc3[nH]c(=O)n(CCc4cccnc4)c3n2)cc1)N1CCOCC1` [CBK064334]: the viability at 28.5 h, 10 µM was determined as 99.1%.

As for `Cc1cc(Cl)c(OCCN2CCCCCC2)c(Br)c1` [CBK266049G], the viability at 28.5 h, 10 µM worked out at 91.7%.

With `Cc1nc2cc(OCc3nc(C(=O)NCC(O)CO)co3)ccc2s1` (stereo not shown) [CBK307067], the viability at 28.5 h, 10 µM turned out to be 102%.

As to `N#Cc1ccc(NCC(=O)Nc2ncn(Cc3cccnc3)n2)cc1` [CBK306343], the viability at 28.5 h, 10 µM came out at 94.3%.

As to `Cc1ccc(NC(=O)CC2Nc3ccccc3OC2=O)cc1C` (stereo not shown) [CBK270214], the viability at 28.5 h, 10 µM was 81.5%.

On to `CC(C)(C)c1csc(C(=Cc2ccc(C#N)cc2)C(N)=O)n1` [CBK001154], for which the viability at 28.5 h, 10 µM is 88.7%.

On to `CCCn1cnc2sc(C(=O)Nc3ccc(C)cc3C)c(C)c2c1=O` [CBK071815], for which the viability at 28.5 h, 10 µM stood at 84.6%.

On to `CC(=O)c1ccc(-c2ccc(C(=O)NCCc3ccc(S(N)(=O)=O)cc3)c(N(C)C(C)=O)n2)s1` [CBK076621], for which the viability at 28.5 h, 10 µM is 91.9%.

As for `Cn1c(=O)c2c(nc(CN3CCCCC3)n2CC(=O)c2ccccc2)n(C)c1=O` [CBK269563], the viability at 28.5 h, 10 µM was 87.1%.

Turning to `CCCNCC(=O)N1CN(C(=O)c2ccc(C)cc2)C(C)(C)C1` [CBK089572C], the viability at 28.5 h, 10 µM worked out at 111%.

With `Cc1cccc(C(C)(C)C)c1OCCCCNCCN` [CBK265092G], the viability at 28.5 h, 10 µM stood at 110%.

On to `COc1ccc(CNC(=O)C2CCCN(c3nc4c(-c5ccc(C)cc5)csc4c(=O)[nH]3)C2)cc1` (stereo not shown) [CBK215530], for which the viability at 28.5 h, 10 µM came out at 112%.

For the compound `CCN(CC)C(=O)C1CCCN(C(=O)NCc2cc(OC)c(OC)c(OC)c2)C1` (stereo not shown) [CBK156130], the viability at 28.5 h, 10 µM came out at 86.8%.

With `COc1ccc(C)cc1C1(CNC(=O)C2CCCC2N)CCOCC1` (stereo not shown) [CBK304308C], the viability at 28.5 h, 10 µM turned out to be 108%.

For `CC(=O)Nc1ccc(S(=O)(=O)N2CCN(S(=O)(=O)c3ccccc3[N+](=O)[O-])CC2)cc1` [CBK264314], the viability at 28.5 h, 10 µM came out at 104%.

With `O=C(CSc1ccccc1)Nc1cccc(Oc2ccc3c(c2)C(=O)NC3=O)c1` [CBK266500], the viability at 28.5 h, 10 µM worked out at 113%.

For `COc1ccc(Cl)cc1C(=O)Nc1cc(C)c2c(=O)oc3ccccc3c2n1` [CBK291196], the viability at 28.5 h, 10 µM came to 108%.

On to `O=[N+]([O-])c1ccc(Oc2cccc3cccnc23)c(C(F)(F)F)c1` [CBK002739], for which the viability at 28.5 h, 10 µM stood at 80.6%.

As to `O=C(c1cncc(-c2[nH]nnc2-c2ccccc2)c1)N1CCCC1` [CBK160360], the viability at 28.5 h, 10 µM was determined as 91.7%.

Regarding `CCOc1ccsc1C(=O)Nc1ccccc1N1CCCNCC1` [CBK036354T], the viability at 28.5 h, 10 µM was determined as 95.7%.

Turning to `Cn1cc(CCNC(=O)Nc2ccc(CN3CCCC3=O)cc2)cn1` [CBK305410], the viability at 28.5 h, 10 µM worked out at 107%.

Consider `CC(CN1CCCCC1)NC(=O)c1cc(-c2ccncc2)nc2ccc(Br)cc12` (stereo not shown) [CBK267756], for which the viability at 28.5 h, 10 µM is 90.6%.

For the compound `N#Cc1ccc(Oc2cccc(/N=C/c3ccc(/C=N/c4cccc(Oc5ccc(C#N)cc5)c4)cc3)c2)cc1` [CBK261157], the viability at 28.5 h, 10 µM came out at 93.7%.

As to `c1ccc(OCCSc2cc(N3CCCC3)ncn2)cc1` [CBK103689], the viability at 28.5 h, 10 µM turned out to be 113%.

Regarding `O=C(O)C1CCC(CNC(=O)C2Cc3ccccc3CN2)CC1` (stereo not shown) [CBK286745], the viability at 28.5 h, 10 µM was 84.6%.

For the compound `Nc1nc(Cl)cc(Sc2ccc3ccccc3c2)n1` [CBK021630], the viability at 28.5 h, 10 µM was 97.4%.

For the compound `CCS(=O)(=O)c1nc2ccccc2n1CC(=O)Nc1ccccc1C(=O)OC` [CBK267877], the viability at 28.5 h, 10 µM was found to be 90%.

As to `Fc1ccc(-c2cncc(NCCc3ccncc3)n2)c(F)c1` [CBK065810], the viability at 28.5 h, 10 µM is 104%.

With `Nc1nc(OCc2cccs2)cnc1-c1ccsc1` [CBK145161], the viability at 28.5 h, 10 µM amounted to 95.8%.

In the case of `CN(C)CC(C)(C)CNC(=O)c1cnc2cc(Cl)ccc2c1O` [CBK107357], the viability at 28.5 h, 10 µM came to 97%.

Turning to `O=C(O)c1cn(CCN2C(=O)c3ccccc3C2=O)nn1` [CBK286543], the viability at 28.5 h, 10 µM worked out at 91%.

As for `O=C(c1ccccc1)c1cn[nH]c1-c1ccccc1O` [CBK287970], the viability at 28.5 h, 10 µM came out at 77.8%.

Consider `Cc1nn(C(C)CC(=O)NCc2ccco2)c(C)c1Br` (stereo not shown) [CBK269797], for which the viability at 28.5 h, 10 µM was found to be 89.5%.

Consider `Cc1cc2c(s1)c1cnn(CCN3CCCC3)c(=O)c1n2C` [CBK284180], for which the viability at 28.5 h, 10 µM is 90%.

Consider `Cn1cc(C2CCCCCN2C(=O)c2cccc(F)c2)cn1` (stereo not shown) [CBK284970], for which the viability at 28.5 h, 10 µM came out at 102%.

On to `Cc1nc(SCC(=O)O)nc(O)c1Oc1ccccc1` [CBK263621], for which the viability at 28.5 h, 10 µM came out at 103%.

For the compound `CN1C(=O)COc2ccccc2C/C=C/C[C@@H]2[C@H]1CCCN2C(=O)Cn1ccc(=O)[nH]c1=O` [CBK292093], the viability at 28.5 h, 10 µM was found to be 102%.

For the compound `CC(Cn1cncn1)C(=O)N1CCc2sccc2C1C` (stereo not shown) [CBK282080], the viability at 28.5 h, 10 µM was 106%.

For `C=CCN1C(=O)CC2(C1=O)C(=O)N(Cc1nnc(-c3ccc(C)cc3)o1)c1ccc(Cl)cc12` (stereo not shown) [CBK075434], the viability at 28.5 h, 10 µM was found to be 104%.

On to `Cc1c(CC(=O)O)c(=O)oc2cc(OCc3ccc(F)cc3)ccc12` [CBK286674], for which the viability at 28.5 h, 10 µM turned out to be 103%.

On to `Cc1ccc(S(=O)(=O)NCC(c2ccccc2)N2CCN(CCC#N)CC2)cc1` (stereo not shown) [CBK262865], for which the viability at 28.5 h, 10 µM stood at 97.4%.

Take `CC1(C)CC(NC(=O)C(=O)NC2CC(C)(C)NC(C)(C)C2)CC(C)(C)N1` [CBK261951]: the viability at 28.5 h, 10 µM turned out to be 98.9%.

Consider `CCC(Sc1nc(C)cc(C)n1)C(=O)N1c2ccccc2Sc2ccccc21` (stereo not shown) [CBK263018], for which the viability at 28.5 h, 10 µM was 92.9%.

Take `O=C(Cc1cc(F)cc(F)c1F)N1CCC(Sc2ccc(-c3ccccc3)cc2)CC1` [CBK131952]: the viability at 28.5 h, 10 µM was found to be 94.5%.

Consider `FC(F)(F)c1cccnc1OCCN1CCOCC1` [CBK113456], for which the viability at 28.5 h, 10 µM worked out at 101%.

As to `Cn1cc(CNCC2CCN(CCO)CC2)c(-c2cccnc2)n1` [CBK305153], the viability at 28.5 h, 10 µM came to 91.2%.

`COC(=O)c1sc(NC(=O)C2CCCCC2C(=O)O)c(C(=O)OC)c1C` (stereo not shown) [CBK265389]: the viability at 28.5 h, 10 µM is 106%.

In the case of `CCOc1ccc(S(=O)(=O)N2CCCN(Cc3c[nH]c(C)n3)CC2)c2cccnc12` [CBK063031], the viability at 28.5 h, 10 µM is 101%.

With `Cc1nc(CC(=O)NC(Cc2ccsc2)c2cccnc2)cs1` (stereo not shown) [CBK285389], the viability at 28.5 h, 10 µM stood at 110%.

In the case of `C#CCNC(=O)CC[C@H]1CNC(=O)[C@@H]2[C@@H](CCN2Cc2ccc(C)cc2)N1C` [CBK289036], the viability at 28.5 h, 10 µM is 101%.

As to `CCOC(=O)c1cc(CC)sc1NC(=O)c1cc2ccccc2o1` [CBK267596], the viability at 28.5 h, 10 µM was 88.3%.

For `Cc1nn(CC(=O)N2CCCCCC2)c(=O)c2cc3occc3n12` [CBK283624], the viability at 28.5 h, 10 µM turned out to be 96.5%.

On to `COC(=O)c1ccc(C(=O)OC)c(NC(=O)C2CCCCC2C(=O)O)c1` (stereo not shown) [CBK265422], for which the viability at 28.5 h, 10 µM is 88%.

For `O=c1[nH]c2ncc(-c3ccccc3)nc2n1CCCN1CCOCC1` [CBK064805], the viability at 28.5 h, 10 µM came out at 111%.

`O=C1CC(C(=O)N2CCc3ncc(Cl)cc3C2)c2ccccc2N1` (stereo not shown) [CBK284976]: the viability at 28.5 h, 10 µM is 94.4%.

As to `CCN1CCN(c2ccc(Nc3ccnc4cc5ccccc5cc34)cc2)CC1` [CBK261130], the viability at 28.5 h, 10 µM was determined as 79.8%.

With `O=C(CCS(=O)(=O)c1ccccc1)N(Cc1cccnc1)c1nc2c(F)cccc2s1` [CBK294422], the viability at 28.5 h, 10 µM worked out at 81.5%.

Staying with this series, now noted: human, hela cells, % viability, bulk resorufin, single well.
Turning to `CSc1ccc(C(=O)C(C)(C)N2CCOCC2)cc1` [CBK028870], the viability at 28.5 h, 10 µM was 107%.
